From US20040259104A1, “Test” (priority 2002, published 2004)
“And” between values parts separate entries of the source, which are not always exact repeats. Identical values can stand only once.

Experiments:
Format in all cases: in vivo, human
[1] = tested on: feedback sensitivity of the HPA-axis; assay: Dexamethasone suppression test (DST): serum cortisol after DEX; conditions: mean
Source text: A total of 202 human subjects participated in the study. Their age varied between 53 and 82 years ([…] with mean ages of 67.7±0.6 and 65.9±0.6 years, respectively). They were living in a suburb of Rotterdam, The Netherlands. These subjects were participants in the Rotterdam Study, a population-based cohort study (7983 subjects) of the determinants of chronic disabling diseases in the elderly and were selected at random. Subjects with acute, psychiatric or endocrine diseases, including diabetes mellitus treated with medication were not invited. Compared to all participants of the Rotterdam study, there were no differences in age and gender distribution and cardiovascular risk factors. The subjects gave their written consent to participate in the study, which received the approval of the Medical Ethics Committee of the Erasmus University Medical School. In order to get more information about the individual variability of the feedback sensitivity of the HPA-axis all 202 subjects were invited for a second DST with a lower dose DEX (0.25 mg) two and a half years later. 149 subjects agreed to participate in this second test (72 men and 77 women).
(§1) The two dexamethasone suppression tests (DST) were performed as described previously (Huizenga et al, J.Clin.Endocrinol Metab.1998; 83(1): 47-54). In brief, venous blood was obtained in the morning between 8 and 9 am after an overnight fast for serum cortisol and insulin measurements. Participants were instructed to ingest a tablet of 1 mg (and 0.25 mg, respectively) DEX at 11.00 pm. The next morning fasting blood was drawn by venapuncture at the same time as the previous morning. To check for compliance and possible abnormalities in the metabolism of DEX, the DEX concentration was also measured in a radioimmunoassay using antiserum obtained from IgG Corporation (Nashville, Tenn.). Intra- and interassay variations were below 8.5% and 14.2% respectively.
(§2) Serum cortisol concentrations were determined using RIA-kits obtained from Diagnostics Products Corporation (Los Angeles, Calif.). Intra- and interassay variations were below 8.0% and 9.5% respectively. Circulating insulin and cortisol binding globulin concentrations were determined using commercially available ratioimmunoassays (Medgenix Diagnostics, Brussels, Belgium). Intra- and interassay variations were 8.0% and 13.7% respectively. Estradiol, androstenedione and DHEAS concentrations were determined using RIA-kits obtained from Diagnostics Products Corporation. Intra- and interassay variations; estradiol: 7.0% and 8.1% androstenedione: 8.3% and 9.2%, DHEAS: 5.3% and 7.0% SHBG was assayed with an commercially available immunoradiometric assay (Diagnostics Products Corporation; intra- and interassay variations were 3.6% and 6.9% respectively). Testosterone was measured with a non-commercial radioimmunoassay (intra- and interassay variations 3.6% and 6.9%). Commercially available immunoradiometric assays were used for the measurement of IGF-BP1 (Diagnostic System Laboratories Inc.; intra- and interassay variations 4.0% and 6.0%).

[2] = Fasting serum insulin after DEX administration (DST); conditions: for Post DEX insulin / Δ insulin: mean
Method: as §1, §2

[3] = DEX concentration by radioimmunoassay after DST; conditions: mean
Method: as §1

[4] = Fasting glucose after DEX administration (DST); conditions: 0.25 mg DEX
Method: as §1
Glucose, total cholesterol, HDL-chlesterol and triglycerides were measured using standard laboratory methods. Low density lipoprotein (LDL)-cholesterol was calculated using the following formula: LDL-cholesterol=total cholesterol−((triglycerides/5)+HDL-cholesterol).

[5] = 0.25 mg DEX, ER22/23EK-carriers (n = 13), second examination
[6] = 0.25 mg DEX, non-carriers (n = 136), second examination

For `C[C@@H]1C[C@H]2[C@@H]3CCC4=CC(=O)C=C[C@]4(C)[C@@]3(F)[C@@H](O)C[C@]2(C)[C@@]1(O)C(=O)CO` [DEX, dexamethasone], the PostDEX cortisol [1, 5] was 267.5 nmol/L, the Δ cortisol [1, 5] was 259.7 nmol/L and the PostDEX cortisol [1, 6] was 259.5 nmol/L. For the same compound, the Δ cortisol [1, 6] was 285.8 nmol/L, the PostDEX cortisol ([1]; 1 mg DEX oral at 11.00 pm, next morning fasting, ER22/23EK-carriers (n = 18), first examination) was 57.9 nmol/L and the PostDEX cortisol ([1]; 1 mg DEX oral at 11.00 pm, next morning fasting, non-carriers (n = 184), first examination) was 33.3 nmol/L. For the same compound, the Δ cortisol ([1]; cortisol suppression in reaction to 1 mg DEX, ER22/23EK-carriers (n = 18)) was 504.9 nmol/L, the Δ cortisol ([1]; cortisol suppression in reaction to 1 mg DEX, non-carriers (n = 184)) was 481.4 nmol/L and the “Post DEX insulin” value ([2]; 0.25 mg DEX, ER22/23EK-carriers (n = 10), second examination) was 10.0 mU/l. For the same compound, the “Post DEX insulin” value ([2]; 0.25 mg DEX, non-carriers (n = 105), second examination) was 14.2 mU/l, the “insulin level after DEX administration” value ([2]; 0.25 mg DEX, total group of 115 subjects, 14.7 before, p=0.02) was 13.9±0.50 mU/L and the “Post DEX insulin” value ([2]; 1 mg DEX, ER22/23EK-carriers (n = 15), first examination) was 14.4 mU/l. For the same compound, the “insulin concentration after DEX administration” value ([2]; 1 mg DEX, all 182 subjects together, 11.5±5.15 before, p<0.001) was 17.2±8.41 mU/L, the “Post DEX insulin” value ([2]; 1 mg DEX, non-carriers (n = 167), first examination) was 17.4 mU/l and the Δ insulin ([2]; change in response to 0.25 mg DEX, ER22/23EK-carriers (n = 10)) was 0.01 mU/l. The Δ insulin ([2]; change in response to 0.25 mg DEX, non-carriers (n = 105)) was −0.92 mU/l, the Δ insulin ([2]; change in response to 1 mg DEX, ER22/23EK-carriers (n = 15)) was 5.5±1.3 mU/l and 5.5 mU/l and the Δ insulin ([2]; change in response to 1 mg DEX, non-carriers (n = 167)) was 5.7±0.6 mU/l and 5.7 mU/l. For the same compound, the DEX concentration ([3]; morning after 0.25 mg DEX, ER22/23EK-carriers (n = 13)) was 2.88 nmol/L, the DEX concentration ([3]; morning after 0.25 mg DEX, non-carriers (n = 136)) was 2.85 nmol/L and the DEX concentration ([3]; morning after 1 mg DEX, ER22/23EK-carriers (n = 18)) was 6.63 nmol/L. The DEX concentration ([3]; morning after 1 mg DEX, non-carriers (n = 184)) was 7.32 nmol/L, the “glucose concentration after the 0.25 mg DST” value ([4]; ER22/23EK-carriers) was 5.3 ± 0.17 mmol/L and the “glucose concentration after DST” value ([4]; all subjects, 5.6±0.06 before, p=0.004) was 5.5 ± 0.05 mmol/L. For the same compound, the “glucose concentration after the 0.25 mg DST” value ([4]; non-carriers) was 5.5 ± 0.05 mmol/L.
